“Also recorded” adds a separate entry of the source.
Tests used:
Dnmt3a^R878H/+ cells = assay: Etanercept transplants (pan-TNFα blockade after competitive secondary transplant); type: in vivo, mouse
From the text: FIGS. 7A-7H: TNFR1 is required for Dnmt3a^R878H/+ HSC self-renewal while TNFR2 regulates lymphoid cell production. (FIG. 7A) Schematic of experimental design to test competitive, serial transplant of Mx-Cre control, Dnmt3a^R878H/+(R878H/+), Dnmt3a^R878H/+ Tnfrsf1a^−/− (R878H/+; TNFR1KO) and Dnmt3a^R878H/+ Tnfrsf1b^−/− (R878H/+; TNFR2KO) in aged (>12 mo) recipient mice. (FIG. 7B) Frequency of donor cells in PB (left) and BM (right) of recipient mice at 20 weeks post-secondary transplant. Significance was calculated using Brown-Forsythe and Welch ANOVA with Welch's correction. (FIG. 7C) Representative flow cytometry plots showing B cell and myeloid cell frequencies in donor derived PB. (FIG. 7D) Frequency of B cells (left), T cells (center) and myeloid cells (right) in donor derived PB at 20 weeks post-secondary transplant. Significance was calculated using one-way ANOVA with Tukey's multiple comparisons test. (FIG. 7E) Experimental schematic of transplant experiment with etanercept treatment. (FIG. 7F) Frequency of control or R878H/+ donor cells in PB pre- and post-etanercept treatment. Significance was calculated using two-way ANOVA with Fisher's LSD. (FIG. 7G) Frequency of control or R878H/+ donor cells in BM post-etanercept or vehicle treatment. Significance was calculated using two-way ANOVA with Fisher's LSD. (FIG. 7H) Frequency of HSC, MPP^Mk/E, MPP^G/M, and MPP^Ly populations in control or R878H/+ BM. Significance was calculated using two-way ANOVA with Fisher's LSD. (FIGS. 7B and 7D) Dots represent individual recipient mice, boxes show 25 to 75th percentile, line is median, whiskers show min to max. (FIG. 7F) Dots represent mean across biological replicates (n=4). (FIGS. 7G and 7H) Bars represent mean+/− SEM (n=4). *P<0.05, **P<0.01, ***P<0.001, ****P<0.0001.
TNFα signaling occurs through two distinct TNFα receptors, TNFR1 (Tnfrsf1a) and TNFR2 (Tnfrsf1b). Both TNFR1 and TNFR2 are expressed on HSC and MPP populations and are not altered in surface expression between control and Dnmt3a^R878H/+ mice (data not shown). To determine which of these receptors are responsible for TNFα-mediated selective advantage of Dnmt3a^R878H/+ HSCs and B lymphoid cell production, we crossed Dnmt3a^R878H/+ mice with Tnfrsf1a or Tnfrsf1b knockout mice (data not shown) and tested HSC function by competitive serial BM transplantation into aged recipients (FIG. 7A). […]
1×10^6 BM cells from 2-4-month-old Dnmt3a^+/+ Mx-Cre or Dnmt3a^fl-R878H/+ Mx-Cre donors were competitively transplanted with wild-type CD45.1+ CD45.2+ F1 BM cells in 2-4-month-old CD45.1+ lethally irradiated recipients. […] PB was monitored weekly and at 28 weeks post-transplant, bone marrow was harvested for analysis.

STAT3 = assay: Phosphorylation in HSPCs in response to recombinant OSM stimulation; type: cell-based, mouse; settings: recombinant OSM stimulation for 30 minutes; FIG. 10G
From the text: (§1) FIGS. 10A-10G: OSM signaling is increased in Dnmt3a-mutant hematopoietic stem cells (HSCs) in an aged bone marrow microenvironment. (FIG. 10A) Experiment design. (FIG. 10B) Volcano plot of differentially expressed genes between Dnmt3a-mutant (R878H) vs. wild-type (+/+) HSCs in young recipients (left panel) and aged recipients (right panel). […] (FIG. 10C) Ingenuity Pathway Analysis prediction of upstream factors that would produce the differential gene expression pattern observed in aged recipients shown in FIG. 10B. (FIG. 10D) Gene set enrichment analysis of OSM signaling signature in Dnmt3a-mutant (R878H) vs. wild-type (+/+) HSCs specifically in aged recipient mice. (FIG. 10E) OSM levels in bone marrow fluid of young, middle-aged and old C57BL/6 wild-type mice assessed by ELISA. (FIG. 10F) Schematic of OSM-OSMR signaling pathway with differentially expressed genes in Dnmt3a-mutant vs. control HSCs colored in green (increased) or orange (decreased). (FIG. 10G) Phosphorylation of Stat3 (left panel) and Stat5 (right panel) in wild-type or Dnmt3a-mutant HSPCs in response to recombinant OSM stimulation for 30 minutes.
(§2) To determine which factor(s) might be elevated in the aged bone marrow microenvironment that would impact Dnmt3a-mutant HSPCs, donor-derived hematopoietic stem cells (HSCs) were re-isolated from the experiment shown in FIG. 9A (design shown in FIG. 10A). […]

STAT5 = assay: as above; type: cell-based, mouse; settings: recombinant OSM stimulation for 30 minutes; FIG. 10G
From the text: as §1, §2

[1] = system: Dnmt3a-mutant HSCs vs wild-type HSCs; assay: Mixed HSC culture with or without recombinant OSM, then transplant and engraftment; type: in vivo, mouse; settings: then transplant, FIGS. 11B-11C
From the text: (FIG. 11A) Experiment design. Contribution of wild-type (WT F1) and competitor Dnmt3a-mutant (R878H/+) cells to peripheral blood (FIG. 11B) and bone marrow (FIG. 11C) of recipient mice after culture with or without recombinant OSM.
Next, to determine if OSM stimulation has a differential functional effect on Dnmt3a-mutant vs. control HSCs, we established mixed cultures of purified control and Dnmt3a-mutant HSCs in culture conditions that promote HSC self-renewal and expansion. To test HSC function, we transplanted cells at the end of the culture period into recipient mice and measured their engraftment capacity (FIG. 11A). We find that in absence of OSM there is similar or equal engraftment of wild-type and Dnmt3a-mutant competitor cells in recipient mice (FIGS. 11B-11C). […] This finding supports that OSM is a major factor causing clonal hematopoiesis.

[2] = system: Dnmt3a-mutant (D3a) hematopoietic stem and progenitor cells; assay: Myeloid colony formation in media containing MitoQ or vehicle (DMSO); type: cell-based, mouse; settings: in vitro, MitoQ vs vehicle (DMSO), FIG. 3
Protocol: (§3) Number of myeloid colonies produced from wild-type MxCre control or Dnmt3a-mutant (D3a) hematopoietic stem and progenitor cells in media containing MitoQ or vehicle (DMSO).
(§4) To evaluate the extent to which targeting defects in mitochondrial metabolism might improve wild-type HSC function and thus reduce the selective advantage of Dnmt3a-mutant HSCs, cells were treated with the mitochondrially targeted antioxidant mitoquinol (MitoQ) in vitro and in vivo. […] Treatment with MitoQ or other methods to improve mitochondrial metabolism are attractive targets to consider in the treatment of clonal hematopoiesis and prevention of leukemia.

[3] = system: wild-type MxCre control hematopoietic stem and progenitor cells; assay: as above; type: cell-based, mouse; settings: in vitro, MitoQ vs vehicle (DMSO); FIG. 3
Protocol: as §3, §4

[4] = system: Dnmt3a-mutant (D3a) hematopoietic stem cells; assay: In vivo MitoQ treatment after transplant into aged recipient mice; parameters: species or system mouse; settings: in vivo MitoQ vs vehicle (PBS) after transplant into aged recipient mice, FIG. 4
Protocol: Frequency of donor-derived cells produced from wild-type (MxCre) control or Dnmt3a-mutant (D3a) hematopoietic stem cells post-transplantation and in vivo treatment with MitoQ or vehicle (PBS).
as §4

[5] = etanercept 25 mg/kg IP twice per week for four weeks vs vehicle, FIG. 7H

Etanercept
Frequency of R878H/+ donor cells in BM (BM engraftment) (Dnmt3a^R878H/+ cells; etanercept 25 mg/kg IP twice per week for four weeks vs vehicle, FIG. 7G): trended toward reduction in BM engraftment
Frequency of Dnmt3a^R878H/+ HSC, MPP^Mk/E and MPP^Ly populations in BM (Dnmt3a^R878H/+ cells; [5]): reduced the frequency
Frequency of Dnmt3a^R878H/+ myeloid-primed multipotent progenitors MPP^G/M in BM (Dnmt3a^R878H/+ cells; [5]): trend toward increase
Frequency of R878H/+ donor cells in PB (competitive PB advantage) (Dnmt3a^R878H/+ cells; etanercept 25 mg/kg IP twice per week for four weeks, pre- vs post-treatment, FIG. 7F): reduced the competitive PB advantage

OSM: recombinant pro-inflammatory cytokine Oncostatin M used to stimulate HSCs/HSPCs
Phosphorylation of STAT3 in Dnmt3a-mutant vs control HSPCs (STAT3): greater phosphorylation of STAT3; also recorded: greater downstream Stat3 phosphorylation compared to control HSCs
Phosphorylation of STAT5 in HSPCs (STAT5): phosphorylation of STAT5 was not seen
Engraftment of Dnmt3a-mutant vs wild-type cells in peripheral blood and bone marrow of recipient mice [1]: favors growth of Dnmt3a-mutant hematopoietic stem cells (HSCs); also recorded: greater multi-lineage engraftment capacity in recipient mice compared to OSM-treated wild-type HSCs
Engraftment of Dnmt3a-mutant vs wild-type cells in peripheral blood and bone marrow of recipient mice ([1]; listed as recombinant OSM): entirely favors growth of Dnmt3a-mutant HSCs over wild-type cells

mitoquinol
Number of myeloid colonies / progeny produced from Dnmt3a-mutant cells [2]: reduce number of progeny produced from Dnmt3a-mutant cells; also recorded: decreases myeloid differentiation of hematopoietic stem and progenitor cells in vitro
Number of myeloid colonies / progeny produced from Dnmt3a-mutant cells ([2]; listed as MitoQ®): reduced myeloid differentiation of Dnmt3a-mutant HSCs
Myeloid differentiation of wild-type control cells [3]: did not impact differentiation of wild-type control cells
Contribution of Dnmt3a-mutant cells to hematopoiesis (frequency of donor-derived cells) [4]: reduced contribution of Dnmt3a-mutant cells to hematopoiesis; also recorded: decreases contribution of Dnmt3a-mutant cells to mature hematopoiesis in vivo
Contribution of Dnmt3a-mutant cells to hematopoiesis (frequency of donor-derived cells) ([4]; listed as MitoQ®): impaired differentiation and mature cell production from Dnmt3a-mutant HSCs

From patent publication US20250017949A1, “METHODS AND COMPOSITIONS FOR SUPPRESSING AGING-ASSOCIATED CLONAL HEMATOPOIESIS” (The Jackson Laboratory, priority 2021, published 2025)
